The values below come from US11851409B2, “Deuterated benzylaminopyrimidinedione derivatives and use thereof” (QINGDAO JI'AO PHARMACEUTICAL TECHNOLOGY CO., LTD, priority 2019, dated 2023).

This series can be described thus: Pharmacokinetic test in SD rats. The class given is in vivo. The conditions noted are these: male, plasma, rat, iv, 1 mg/kg; for Vd: read-out: Vss. The procedure: Experimental animals: 4 healthy adult male SD rats (purchased from Hunan SJA Laboratory Animal Co., Ltd) were divided into two groups, […].
Drug preparation: a certain amount of the compound of the present disclosure or MYK461 is weighted, and 10% DMSO, 10% Kolliphor HS15 and 80% saline are added to prepare the compound solution with target concentration.
Administration and sample collection: the animals fasted for 12 h before administration, ate in 3 h after administration, and were administered by intravenous administration (IV, 1 mg/kg) through the posterior limb vein of SD rats and orally intragastric administration (PO, 5 mg/kg), respectively. Then, blood samples were collected from the tail vein of rats at time points of 0, 0.083, 0.25, 0.5, 1, 2, 4, 6, 8, and 24 h, respectively, and the blood volume was about 200-400 μL/time point. After collecting whole blood at each time point, the blood samples were placed in K2EDTA anticoagulant test tubes, which were placed in an incubator with ice packs for preservation. All the samples were centrifuged at 4600 r/min at 4° C. for 5 min within 15 min to obtain plasma. The concentrations of different compounds in rat plasma after administration were determined by LC/MS/MS method. Pharmacokinetic parameters were calculated according to the drug concentration-time curve.

Usually AUC(0-inf) stands for total exposure, with the tail of the curve extrapolated. Higher therefore signals high exposure. What is called AUC(0-t) is exposure summed from dosing to a finite time, without extrapolation to infinity. A word on the Cmax: it is the highest concentration seen after dosing. One may read the MRT inf as a mean duration of stay, worked out from the concentration-time curve. Broadly, the Tmax is the time at which the peak concentration occurs. A word on the clearance: it is the volume of plasma or blood freed of the substance per unit of time. Low readings indicate inefficient removal, high ones efficient removal. By half-life is commonly meant the time needed for the level to fall by half in the phase considered. Read a low half-life as rapid decline. The molecule `[2H]c1c([2H])c([2H])c([C@H](C)Nc2cc(=O)n(C(C)C)c(=O)[nH]2)c([2H])c1[2H]` [Example 1, (S)-3-isopropyl-6-((1-(phenyl-d5)ethyl)amino)pyrimidine-2,4(1H,3H)-dione] came in with an AUC(0-inf) of 6830 ng·h/mL, an exposure AUC(0-t) of 3670 ng·h/mL, a Cmax of 883 ng/mL and an MRT inf of 31.1 h. The Tmax turned out to be 4.98 min, the clearance stood at 2.44 mL/min/kg, the half-life is 1360 min and the Vd turned out to be 4.56 L/kg.

`[2H]c1ccc([C@H](C)Nc2cc(=O)n(C(C)C)c(=O)[nH]2)cc1` [Example 2, (S)-3-isopropyl-6-((1-(phenyl-4-d)ethyl)amino)pyrimidine-2,4(1H,3H)-dione] registered an AUC(0-inf) of 4670 ng·h/mL, an AUC(0-t) of 3290 ng·h/mL, a Cmax of 643 ng/mL and an MRT inf of 18.8 h. In addition, the Tmax came out at 4.98 min, the clearance came to 3.57 mL/min/kg, the half-life is 834 min and the Vd came out at 4.03 L/kg.

Regarding `[2H]C([2H])([2H])C(n1c(=O)cc(N[C@@H](C)c2ccccc2)[nH]c1=O)C([2H])([2H])[2H]` [Example 5, (S)-6-((1-phenylethyl)amino)-3-(propane-2-yl-1,1,1,3,3,3-d6)pyrimidine-2,4 (1H,3H)-dione], the AUC(0-inf) came out at 5690 ng·h/mL, the AUC(0-t) worked out at 4450 ng·h/mL, the Cmax came to 982 ng/mL and the MRT inf is 14.8 h. The Tmax stood at 4.98 min, the clearance came to 2.93 mL/min/kg, the half-life is 678 min and the Vd is 2.6 L/kg.

Molecule `CC(C)n1c(=O)cc(N[C@@H](C)c2ccccc2)[nH]c1=O` [MYK461, reference compound] gave an AUC(0-inf) of 3090 ng·h/mL, an AUC(0-t) of 2420 ng·h/mL, a Cmax of 393 ng/mL and an MRT inf of 15.1 h. Besides, the Tmax stood at 4.98 min, the clearance was 5.39 mL/min/kg, the half-life was 696 min and the Vd was determined as 4.87 L/kg.
